Data published in the NIST ThermoML archive (doi:10.1016/j.jct.2016.10.039).

Experiment: mn = molality of the nth substance listed, in mol/kg
Details: 298.15 K, 85 kPa, Liquid, Alternating current cell with electrodes

CCCCCCCCCCCC[N+](C)(C)C.[Br-] [dodecyltrimethylammonium bromide] + O
Details | electrical conductivity [S/m]
m1 = 0.00185 | 0.0125
m1 = 0.00366 | 0.0246
m1 = 0.00542 | 0.0367
m1 = 0.00714 | 0.0487
m1 = 0.00882 | 0.0609
m1 = 0.01047 | 0.0731
m1 = 0.01207 | 0.0856
m1 = 0.01364 | 0.0976
m1 = 0.01517 | 0.108
m1 = 0.01667 | 0.116
m1 = 0.01813 | 0.121
m1 = 0.01957 | 0.125
m1 = 0.02097 | 0.128
m1 = 0.02234 | 0.132
m1 = 0.02368 | 0.135
m1 = 0.025 | 0.138
m1 = 0.02629 | 0.141
m1 = 0.02755 | 0.145
m1 = 0.02879 | 0.148
m1 = 0.03 | 0.151
m1 = 0.03119 | 0.154
m1 = 0.03235 | 0.157
m1 = 0.0335 | 0.16

O [water] + CCCCCCCCCCCC[N+](C)(C)C.[Br-]
Details | electrical conductivity [S/m]
m2 = 0 | 0.00021

CCCCCCCCCCCCn1cc[n+](C)c1.[Br-] [1-dodecyl-3-methylimidazolium bromide] + O
Details | electrical conductivity [S/m]
m1 = 0.00123 | 0.0086
m1 = 0.00244 | 0.0169
m1 = 0.00361 | 0.0251
m1 = 0.00476 | 0.0331
m1 = 0.00588 | 0.0411
m1 = 0.00698 | 0.0489
m1 = 0.00805 | 0.0567
m1 = 0.00909 | 0.0644
m1 = 0.01011 | 0.0702
m1 = 0.01111 | 0.0736
m1 = 0.01209 | 0.0764
m1 = 0.01304 | 0.0788
m1 = 0.01398 | 0.0814
m1 = 0.01489 | 0.0836
m1 = 0.01579 | 0.0856
m1 = 0.01667 | 0.0877
m1 = 0.01753 | 0.0898
m1 = 0.01837 | 0.0918
m1 = 0.01919 | 0.0938
m1 = 0.02 | 0.0957
m1 = 0.02079 | 0.0977
m1 = 0.02157 | 0.0997

O [water] + CCCCCCCCCCCCn1cc[n+](C)c1.[Br-]
Details | electrical conductivity [S/m]
m2 = 0 | 0.00024
